Measured values from patent US10294202B2, “Pyrrolidinones as herbicides” (FMC Corporation, priority 2013, dated 2019).

Legend:
corn [1] = assay: Test A pre-/postemergence herbicide test; assay type: in vivo, Zea mays
In short: (§1)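 Formulated compound (non-phytotoxic solvent, surfactant) sprayed pre- onto soil of seeded loam/sand pots or post- onto seedlings at 1–2 leaves; ~10 d greenhouse; 0–100 visual control rating versus untreated.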

barnyardgrass = assay: Test A pre-/postemergence herbicide test; assay type: in vivo, Echinochloa crus-galli
In short: as §1

wheat = assay: Test A pre-/postemergence herbicide test; assay type: in vivo, Triticum aestivum
In short: as §1

pigweed = assay: Test A pre-/postemergence herbicide test; assay type: in vivo, Amaranthus retroflexus
In short: as §1

morningglory = assay: Test C pre-/postemergence herbicide test; assay type: in vivo, Ipomoea coccinea; settings: Preemergence
Source text: (§2) Seeds of plant species selected from blackgrass (Alopecurus myosuroides), ryegrass, Italian (Italian ryegrass, Lolium multiflorum), wheat (winter wheat, Triticum aestivum), galium (catchweed bedstraw, Galium aparine), corn (Zea mays), crabgrass, large (large crabgrass, Digitaria sanguinalis), foxtail, giant (giant foxtail, Setaria faberii), johnsongrass (Sorghum halepense), lambsquarters (Chenopodium album), morningglory (Ipomoea coccinea), nutsedge, yellow (yellow nutsedge, Cyperus esculentus), pigweed (Amaranthus retroflexus), ragweed (common ragweed, Ambrosia elatior), soybean (Glycine max), barnyardgrass (Echinochloa crus-galli), oilseed rape (Brassica napus), waterhemp (common waterhemp, Amaranthus rudis), kochia (Kochia scoparia), oat, wild (wild oat, Avena fatua), surinam grass (Brachiaria decumbens), foxtail, green (green foxtail, Setaria viridis), goosegrass (Eleusine indica), bromegrass, downy (downy bromegrass, Bromus tectorum), nightshade (eastern black nightshade, Solanum ptycanthum), cocklebur (common cocklebur, Xanthium strumarium), cupgrass, woolly (woolly cupgrass, Eriochloa villosa), bermudagrass (Cynodon dactylon), sunflower, (common oilseed sunflower, Helianthus annuus), Russian thistle (Salsola kali) and velvetleaf (Abutilon theophrasti) were planted into a blend of loam soil and sand and treated preemergence with test chemicals formulated in a non-phytotoxic solvent mixture which included a surfactant. At the same time, plants selected from these crop and weed species and also barley (winter barley, Hordeum vulgare), […]), chickweed (common chickweed, Stellaria media), deadnettle (henbit deadnettle, Lamium amplexicaule), and canarygrass (littleseed canarygrass, Phalaris minor) were planted in pots containing Redi-Earth® planting medium (Scotts Company, 14111 Scottslawn Road, Marysville, Ohio 43041) comprising spaghnum peat moss, vermiculite, wetting agent and starter nutrients and treated with postemergence applications of test chemicals formulated in the same manner. Plants ranged in height from 2 to 18 cm (1- to 4-leaf stage) for postemergence treatments. Treated plants and controls were maintained in a greenhouse for 13 to 15 days, after which time all species were compared to controls and visually evaluated. Plant response ratings, summarized in Table C, are based on a scale of 0 to 100 where 0 is no effect and 100 is complete control. A dash (-) response means no test result.

foxtail, giant = assay: Test C pre-/postemergence herbicide test; assay type: in vivo, Setaria faberii; settings: Preemergence; for Foxtail, Giant plant response rating: 31 g ai/ha
Source text: as §2

wheat (winter wheat) = assay: Test C pre-/postemergence herbicide test; assay type: in vivo, Triticum aestivum; settings: Preemergence
Source text: as §2

soybean = assay: Test C pre-/postemergence herbicide test; assay type: in vivo, Glycine max; settings: Preemergence
Source text: as §2

corn [2] = assay: Test C pre-/postemergence herbicide test; assay type: in vivo, Zea mays; settings: Preemergence; for Corn plant response rating: 31 g ai/ha
Source text: as §2

ryegrass, Italian = assay: Test C pre-/postemergence herbicide test; assay type: in vivo, Lolium multiflorum; settings: Preemergence
Source text: as §2

galium = assay: Test C pre-/postemergence herbicide test; assay type: in vivo, Galium aparine; settings: Preemergence; for Galium plant response rating: 31 g ai/ha
Source text: as §2

crabgrass, large = assay: Test C pre-/postemergence herbicide test; assay type: in vivo, Digitaria sanguinalis; settings: Preemergence; for Crabgrass, Large plant response rating: 31 g ai/ha
Source text: as §2

johnsongrass = assay: Test C pre-/postemergence herbicide test; assay type: in vivo, Sorghum halepense; settings: Preemergence
Source text: as §2

[3] = Postemergence, 125 g ai/ha, 0 to 100 scale, 0 no effect, 100 complete control
[4] = Postemergence, 500 g ai/ha, 0 to 100 scale (0 no effect, 100 complete control)
[5] = Preemergence, 125 g ai/ha, visual rating on 0 to 100 scale (0 no effect, 100 complete control)
[6] = preemergence, 500 g ai/ha, 0 to 100 scale
[7] = preemergence, 500 g ai/ha, 0 to 100 scale (0 no effect, 100 complete control)
[8] = 125 g ai/ha, scale 0 to 100 (0 no effect, 100 complete control)
[9] = scale 0 to 100 (0 no effect, 100 complete control)
[10] = 250 g ai/ha, scale 0 to 100 (0 no effect, 100 complete control)
[11] = Postemergence, 1000 g ai/ha, 0 to 100 scale (0 no effect, 100 complete control)
[12] = Preemergence, 1000 g ai/ha, visual rating on 0 to 100 scale (0 no effect, 100 complete control), approx. 10 days

O=C1NCC(c2cccc(C(F)(F)F)c2)C1C(=O)Nc1ccccc1F (racemic) [Compound 3]
Plant response rating, Corn (corn [1]; [3]): 0 | Plant response rating, Corn (corn [1]; [4]): 60 | Corn plant response rating (corn [1]; [5]): 0 | Plant response rating, Corn (corn [1]; [6]): 50 | Plant response rating, Barnyardgrass (barnyardgrass; [3]): 70 | Plant response rating, Barnyardgrass (barnyardgrass; [4]): 80 | Barnyardgrass plant response rating (barnyardgrass; [5]): 60 | Plant response rating, Barnyardgrass (barnyardgrass; [7]): 80 | Plant response rating, Wheat (wheat; [4]): 50 | Wheat plant response rating (wheat; [5]): 40 | Plant response rating, Wheat (wheat; [6]): 60 | Plant response rating, Pigweed (pigweed; [4]): 50 | Pigweed plant response rating (pigweed; [5]): 0 | Plant response rating, Pigweed (pigweed; [6]): 0

O=C1NCC(c2ccc(F)c(F)c2)C1C(=O)Nc1cccc(F)c1 (racemic) [Compound 12]
Plant response rating, Corn (corn [1]; [3]): 0 | Plant response rating, Corn (corn [1]; [4]): 0 | Corn plant response rating (corn [1]; [5]): 0 | Plant response rating, Corn (corn [1]; [6]): 0 | Plant response rating, Barnyardgrass (barnyardgrass; [3]): 60 | Plant response rating, Barnyardgrass (barnyardgrass; [4]): 90 | Barnyardgrass plant response rating (barnyardgrass; [5]): 60 | Plant response rating, Barnyardgrass (barnyardgrass; [7]): 90 | Plant response rating, Wheat (wheat; [3]): 0 | Plant response rating, Wheat (wheat; [4]): 20 | Wheat plant response rating (wheat; [5]): 0 | Plant response rating, Wheat (wheat; [6]): 20 | Plant response rating, Pigweed (pigweed; [3]): 0 | Plant response rating, Pigweed (pigweed; [4]): 0 | Pigweed plant response rating (pigweed; [5]): 0 | Plant response rating, Pigweed (pigweed; [6]): 0

O=C1NCC(c2ccc(F)cc2)C1C(=O)Nc1ccccc1F (racemic) [Compound 16]
Plant response rating, Morningglory (morningglory; 62 g ai/ha, scale 0 to 100): 0 | Plant response rating, Morningglory (morningglory; [8]): 0 | Plant response rating, Corn (corn [1]; [3]): 0 | Plant response rating, Corn (corn [1]; [4]): 30 | Corn plant response rating (corn [1]; [5]): 0 | Plant response rating, Corn (corn [1]; [6]): 30 | Foxtail, Giant plant response rating (foxtail, giant; [9]): 0 | Plant response rating, Foxtail, Giant (foxtail, giant; 62 g ai/ha, scale 0 to 100): 70 | Plant response rating, Foxtail, Giant (foxtail, giant; [8]): 90 | Plant response rating, Foxtail, Giant (foxtail, giant; [10]): 95 | Plant response rating, Barnyardgrass (barnyardgrass; [3]): 70 | Plant response rating, Barnyardgrass (barnyardgrass; [4]): 90 | Barnyardgrass plant response rating (barnyardgrass; [5]): 80 | Plant response rating, Barnyardgrass (barnyardgrass; [7]): 90 | Plant response rating, Wheat (wheat (winter wheat); 62 g ai/ha, scale 0 to 100): 0 | Plant response rating, Wheat (wheat (winter wheat); [8]): 0 | Plant response rating, Wheat (wheat; [3]): 20 | Plant response rating, Wheat (wheat; [4]): 50 | Wheat plant response rating (wheat; [5]): 0 | Plant response rating, Wheat (wheat; [6]): 0 | Plant response rating, Soybean (soybean; 62 g ai/ha, scale 0 to 100): 0 | Plant response rating, Soybean (soybean; [8]): 0 | Corn plant response rating (corn [2]; [9]): 0 | Plant response rating, Corn (corn [2]; 62 g ai/ha, scale 0 to 100): 0 | Plant response rating, Corn (corn [2]; [8]): 5 | Plant response rating, Corn (corn [2]; [10]): 10 | Plant response rating, Ryegrass, Italian (ryegrass, Italian; 62 g ai/ha, scale 0 to 100): 0 | Galium plant response rating (galium; [9]): 0 | Plant response rating, Galium (galium; 62 g ai/ha, scale 0 to 100): 0 | Plant response rating, Pigweed (pigweed; [3]): 0 | Plant response rating, Pigweed (pigweed; [4]): 0 | Pigweed plant response rating (pigweed; [5]): 0 | Plant response rating, Pigweed (pigweed; [6]): 0 | Crabgrass, Large plant response rating (crabgrass, large; [9]): 95 | Plant response rating, Crabgrass, Large (crabgrass, large; 62 g ai/ha, scale 0 to 100): 95 | Plant response rating, Crabgrass, Large (crabgrass, large; [8]): 100 | Plant response rating, Crabgrass, Large (crabgrass, large; [10]): 100 | Plant response rating, Johnsongrass (johnsongrass; 62 g ai/ha, scale 0 to 100): 0 | Plant response rating, Johnsongrass (johnsongrass; [8]): 0

O=C1NCC(c2cc(F)c(F)c(F)c2)C1C(=O)Nc1ccccc1C(F)(F)F (racemic) [Compound 33]
Plant response rating, Morningglory (morningglory; 62 g ai/ha, scale 0 to 100): 0 | Plant response rating, Morningglory (morningglory; [8]): 0 | Plant response rating, Corn (corn [1]; [11]): 40 | Plant response rating, Corn (corn [1]; [12]): 0 | Foxtail, Giant plant response rating (foxtail, giant; [9]): 75 | Plant response rating, Foxtail, Giant (foxtail, giant; 62 g ai/ha, scale 0 to 100): 95 | Plant response rating, Foxtail, Giant (foxtail, giant; [8]): 98 | Plant response rating, Foxtail, Giant (foxtail, giant; [10]): 98 | Plant response rating, Barnyardgrass (barnyardgrass; [11]): 90 | Plant response rating, Barnyardgrass (barnyardgrass; [12]): 90 | Plant response rating, Wheat (wheat (winter wheat); 62 g ai/ha, scale 0 to 100): 0 | Plant response rating, Wheat (wheat (winter wheat); [8]): 35 | Plant response rating, Wheat (wheat; [11]): 60 | Plant response rating, Wheat (wheat; [12]): 50 | Plant response rating, Soybean (soybean; [8]): 0 | Corn plant response rating (corn [2]; [9]): 0 | Plant response rating, Corn (corn [2]; 62 g ai/ha, scale 0 to 100): 10 | Plant response rating, Corn (corn [2]; [8]): 20 | Plant response rating, Corn (corn [2]; [10]): 30 | Plant response rating, Ryegrass, Italian (ryegrass, Italian; 62 g ai/ha, scale 0 to 100): 0 | Plant response rating, Ryegrass, Italian (ryegrass, Italian; [8]): 0 | Galium plant response rating (galium; [9]): 0 | Plant response rating, Galium (galium; 62 g ai/ha, scale 0 to 100): 0 | Plant response rating, Galium (galium; [8]): 60 | Plant response rating, Galium (galium; [10]): 90 | Plant response rating, Pigweed (pigweed; [11]): 0 | Plant response rating, Pigweed (pigweed; [12]): 0 | Crabgrass, Large plant response rating (crabgrass, large; [9]): 95 | Plant response rating, Crabgrass, Large (crabgrass, large; 62 g ai/ha, scale 0 to 100): 98 | Plant response rating, Crabgrass, Large (crabgrass, large; [8]): 100 | Plant response rating, Crabgrass, Large (crabgrass, large; [10]): 100 | Plant response rating, Johnsongrass (johnsongrass; 62 g ai/ha, scale 0 to 100): 0 | Plant response rating, Johnsongrass (johnsongrass; [8]): 0
